Measurements published in ChEMBL document CHEMBL3991601, “The target landscape of clinical kinase drugs” (Science, 2017).
Counter-ions that a name gives are not always drawn. Activity calls are given as the source filed them.

Experiments:
[1] = target: T1, Peroxisomal acyl-coenzyme A oxidase 1 (Homo sapiens, UniProt Q15067)
T1 sequence (Q15067 whole entry): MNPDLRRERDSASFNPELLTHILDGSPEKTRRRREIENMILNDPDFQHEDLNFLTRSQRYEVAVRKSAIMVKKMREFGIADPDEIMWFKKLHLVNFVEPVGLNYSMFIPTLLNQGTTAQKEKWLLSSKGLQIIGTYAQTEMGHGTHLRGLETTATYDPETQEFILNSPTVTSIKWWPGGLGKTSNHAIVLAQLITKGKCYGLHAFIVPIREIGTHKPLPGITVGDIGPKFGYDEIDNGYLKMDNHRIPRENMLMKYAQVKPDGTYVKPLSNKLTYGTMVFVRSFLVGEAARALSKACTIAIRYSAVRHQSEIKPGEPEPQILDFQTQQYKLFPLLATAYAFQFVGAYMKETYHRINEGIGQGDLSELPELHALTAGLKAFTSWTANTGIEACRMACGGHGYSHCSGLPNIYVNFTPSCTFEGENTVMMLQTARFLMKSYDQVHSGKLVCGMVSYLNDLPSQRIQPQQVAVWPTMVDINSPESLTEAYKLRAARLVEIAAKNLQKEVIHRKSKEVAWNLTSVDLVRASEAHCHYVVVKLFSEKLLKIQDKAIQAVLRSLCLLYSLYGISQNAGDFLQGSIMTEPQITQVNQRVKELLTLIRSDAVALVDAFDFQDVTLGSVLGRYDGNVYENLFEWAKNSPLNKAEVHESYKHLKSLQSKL

[2] = target: T2, Serine/threonine-protein kinase NLK (Homo sapiens, UniProt Q9UBE8)
T2 sequence (Q9UBE8 whole entry): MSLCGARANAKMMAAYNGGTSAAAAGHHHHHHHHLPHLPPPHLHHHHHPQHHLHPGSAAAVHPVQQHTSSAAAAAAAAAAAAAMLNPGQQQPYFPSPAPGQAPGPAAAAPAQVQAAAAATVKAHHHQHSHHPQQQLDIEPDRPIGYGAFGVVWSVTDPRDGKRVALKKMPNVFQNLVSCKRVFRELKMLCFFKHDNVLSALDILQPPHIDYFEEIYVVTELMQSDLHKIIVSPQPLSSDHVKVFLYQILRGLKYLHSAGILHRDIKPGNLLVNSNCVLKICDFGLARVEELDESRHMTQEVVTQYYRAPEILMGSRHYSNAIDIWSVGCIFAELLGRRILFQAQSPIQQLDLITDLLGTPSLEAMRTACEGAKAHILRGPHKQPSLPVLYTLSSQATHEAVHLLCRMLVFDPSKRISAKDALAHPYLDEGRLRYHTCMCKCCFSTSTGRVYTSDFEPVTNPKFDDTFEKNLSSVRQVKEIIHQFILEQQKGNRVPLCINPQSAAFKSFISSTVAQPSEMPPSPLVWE

[3] = target: MAP/microtubule affinity-regulating kinase 3 (Homo sapiens, UniProt P27448)
MAP/microtubule affinity-regulating kinase 3, sequence (P27448 whole entry): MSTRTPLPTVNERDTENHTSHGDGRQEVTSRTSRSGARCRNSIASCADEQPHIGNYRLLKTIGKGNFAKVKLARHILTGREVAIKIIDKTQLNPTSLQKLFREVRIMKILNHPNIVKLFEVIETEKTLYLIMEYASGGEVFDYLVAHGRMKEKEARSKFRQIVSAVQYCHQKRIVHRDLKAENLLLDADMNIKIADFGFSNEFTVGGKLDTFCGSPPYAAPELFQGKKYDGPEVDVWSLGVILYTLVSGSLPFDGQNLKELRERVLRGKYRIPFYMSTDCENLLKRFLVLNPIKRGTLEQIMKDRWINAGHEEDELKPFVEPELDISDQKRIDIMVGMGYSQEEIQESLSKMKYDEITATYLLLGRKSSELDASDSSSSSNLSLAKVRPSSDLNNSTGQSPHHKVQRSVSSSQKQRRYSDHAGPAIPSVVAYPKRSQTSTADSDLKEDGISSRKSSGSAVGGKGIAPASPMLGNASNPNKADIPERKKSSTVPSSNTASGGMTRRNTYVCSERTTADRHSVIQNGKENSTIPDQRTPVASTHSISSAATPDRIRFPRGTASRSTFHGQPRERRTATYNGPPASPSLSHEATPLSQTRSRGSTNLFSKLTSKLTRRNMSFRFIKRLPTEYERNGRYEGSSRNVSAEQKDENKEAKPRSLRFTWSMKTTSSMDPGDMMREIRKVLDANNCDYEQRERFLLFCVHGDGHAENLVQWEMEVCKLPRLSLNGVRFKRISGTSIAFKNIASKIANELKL

[4] = target: Glycogen synthase kinase-3 beta (Homo sapiens, UniProt P49841)
Glycogen synthase kinase-3 beta, sequence (P49841 whole entry): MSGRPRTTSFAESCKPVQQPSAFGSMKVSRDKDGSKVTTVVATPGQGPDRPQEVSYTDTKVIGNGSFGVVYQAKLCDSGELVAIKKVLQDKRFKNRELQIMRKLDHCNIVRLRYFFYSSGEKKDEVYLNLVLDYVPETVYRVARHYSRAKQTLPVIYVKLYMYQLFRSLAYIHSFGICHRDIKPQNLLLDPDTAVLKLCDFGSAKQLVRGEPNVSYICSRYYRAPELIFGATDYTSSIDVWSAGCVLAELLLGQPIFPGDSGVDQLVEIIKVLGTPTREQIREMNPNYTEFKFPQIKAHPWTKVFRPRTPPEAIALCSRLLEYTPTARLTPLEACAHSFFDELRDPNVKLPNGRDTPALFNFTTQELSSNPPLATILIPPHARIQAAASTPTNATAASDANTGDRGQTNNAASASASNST

[5] = target: Serine/threonine-protein kinase PAK 6 (Homo sapiens, UniProt Q9NQU5)
Serine/threonine-protein kinase PAK 6, sequence (Q9NQU5 whole entry): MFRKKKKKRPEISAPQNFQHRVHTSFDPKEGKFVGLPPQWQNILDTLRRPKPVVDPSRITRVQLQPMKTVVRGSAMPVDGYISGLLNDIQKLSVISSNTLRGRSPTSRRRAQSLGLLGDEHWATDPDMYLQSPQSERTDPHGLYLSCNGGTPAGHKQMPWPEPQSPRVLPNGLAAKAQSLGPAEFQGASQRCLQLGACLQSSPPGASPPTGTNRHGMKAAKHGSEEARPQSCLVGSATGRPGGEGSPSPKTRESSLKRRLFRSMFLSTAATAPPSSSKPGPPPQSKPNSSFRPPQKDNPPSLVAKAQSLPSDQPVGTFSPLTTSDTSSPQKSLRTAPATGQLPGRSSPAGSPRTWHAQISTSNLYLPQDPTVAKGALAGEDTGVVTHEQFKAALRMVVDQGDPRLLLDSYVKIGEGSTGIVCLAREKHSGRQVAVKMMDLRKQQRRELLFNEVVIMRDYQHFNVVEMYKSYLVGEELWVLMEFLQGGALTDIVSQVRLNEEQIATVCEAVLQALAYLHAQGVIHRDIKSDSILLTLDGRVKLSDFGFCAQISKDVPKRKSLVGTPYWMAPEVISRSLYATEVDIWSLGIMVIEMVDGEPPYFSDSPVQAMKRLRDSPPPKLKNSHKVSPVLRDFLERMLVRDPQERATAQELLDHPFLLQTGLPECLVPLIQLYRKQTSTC

[6] = target: Mitogen-activated protein kinase 11 (Homo sapiens, UniProt Q15759)
Mitogen-activated protein kinase 11, sequence (Q15759 whole entry): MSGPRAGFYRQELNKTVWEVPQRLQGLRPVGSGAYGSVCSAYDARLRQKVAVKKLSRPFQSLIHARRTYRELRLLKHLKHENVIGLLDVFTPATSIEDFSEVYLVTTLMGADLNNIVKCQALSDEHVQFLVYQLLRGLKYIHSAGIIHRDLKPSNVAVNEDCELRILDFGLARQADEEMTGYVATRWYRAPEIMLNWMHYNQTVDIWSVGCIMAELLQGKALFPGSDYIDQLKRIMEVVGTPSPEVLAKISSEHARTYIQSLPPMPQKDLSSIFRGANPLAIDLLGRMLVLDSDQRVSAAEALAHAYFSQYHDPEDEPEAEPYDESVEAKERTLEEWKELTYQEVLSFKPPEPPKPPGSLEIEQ

[7] = target: Protein-tyrosine kinase 2-beta (Homo sapiens, UniProt Q14289)
Protein-tyrosine kinase 2-beta, sequence (Q14289 whole entry): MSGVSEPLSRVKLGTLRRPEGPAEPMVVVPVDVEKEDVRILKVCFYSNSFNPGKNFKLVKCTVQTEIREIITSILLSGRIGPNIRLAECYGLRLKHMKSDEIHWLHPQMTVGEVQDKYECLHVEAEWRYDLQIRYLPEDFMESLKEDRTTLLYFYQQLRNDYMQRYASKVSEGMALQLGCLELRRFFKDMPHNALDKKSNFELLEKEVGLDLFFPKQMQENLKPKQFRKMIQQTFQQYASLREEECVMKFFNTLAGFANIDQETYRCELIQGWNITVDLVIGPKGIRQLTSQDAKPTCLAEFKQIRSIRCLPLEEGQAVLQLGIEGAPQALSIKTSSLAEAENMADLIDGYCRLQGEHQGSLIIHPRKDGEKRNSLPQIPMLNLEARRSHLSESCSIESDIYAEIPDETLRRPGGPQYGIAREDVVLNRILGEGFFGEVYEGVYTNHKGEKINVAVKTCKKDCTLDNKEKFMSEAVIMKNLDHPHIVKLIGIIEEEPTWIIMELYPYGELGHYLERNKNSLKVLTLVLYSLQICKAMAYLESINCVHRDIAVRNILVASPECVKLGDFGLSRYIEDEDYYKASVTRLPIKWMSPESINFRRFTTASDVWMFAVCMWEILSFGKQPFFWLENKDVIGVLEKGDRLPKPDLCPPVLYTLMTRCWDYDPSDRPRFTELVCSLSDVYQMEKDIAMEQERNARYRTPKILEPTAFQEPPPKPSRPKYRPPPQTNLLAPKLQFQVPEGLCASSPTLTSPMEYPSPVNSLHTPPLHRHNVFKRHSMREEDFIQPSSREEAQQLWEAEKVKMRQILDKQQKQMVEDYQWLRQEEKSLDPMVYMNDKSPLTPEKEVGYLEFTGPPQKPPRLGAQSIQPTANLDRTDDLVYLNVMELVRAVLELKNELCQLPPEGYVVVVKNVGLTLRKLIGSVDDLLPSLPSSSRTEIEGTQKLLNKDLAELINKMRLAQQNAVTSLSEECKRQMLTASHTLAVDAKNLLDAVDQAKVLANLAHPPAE

ADP/ATP translocase 2 = target: T3, ADP/ATP translocase 2 (Homo sapiens, UniProt P05141)
T3 sequence (P05141 whole entry): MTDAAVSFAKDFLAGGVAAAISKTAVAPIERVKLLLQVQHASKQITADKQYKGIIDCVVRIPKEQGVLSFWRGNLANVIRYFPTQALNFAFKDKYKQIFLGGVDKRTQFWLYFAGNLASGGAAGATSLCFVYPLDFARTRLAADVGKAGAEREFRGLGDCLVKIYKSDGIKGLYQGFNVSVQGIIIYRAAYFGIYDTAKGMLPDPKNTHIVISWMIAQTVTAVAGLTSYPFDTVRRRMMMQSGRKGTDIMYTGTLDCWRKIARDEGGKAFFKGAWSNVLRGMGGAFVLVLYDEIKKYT

[8] = target: Serine/threonine-protein kinase/endoribonuclease IRE1 (Homo sapiens, UniProt O75460)
Serine/threonine-protein kinase/endoribonuclease IRE1, sequence (O75460 whole entry): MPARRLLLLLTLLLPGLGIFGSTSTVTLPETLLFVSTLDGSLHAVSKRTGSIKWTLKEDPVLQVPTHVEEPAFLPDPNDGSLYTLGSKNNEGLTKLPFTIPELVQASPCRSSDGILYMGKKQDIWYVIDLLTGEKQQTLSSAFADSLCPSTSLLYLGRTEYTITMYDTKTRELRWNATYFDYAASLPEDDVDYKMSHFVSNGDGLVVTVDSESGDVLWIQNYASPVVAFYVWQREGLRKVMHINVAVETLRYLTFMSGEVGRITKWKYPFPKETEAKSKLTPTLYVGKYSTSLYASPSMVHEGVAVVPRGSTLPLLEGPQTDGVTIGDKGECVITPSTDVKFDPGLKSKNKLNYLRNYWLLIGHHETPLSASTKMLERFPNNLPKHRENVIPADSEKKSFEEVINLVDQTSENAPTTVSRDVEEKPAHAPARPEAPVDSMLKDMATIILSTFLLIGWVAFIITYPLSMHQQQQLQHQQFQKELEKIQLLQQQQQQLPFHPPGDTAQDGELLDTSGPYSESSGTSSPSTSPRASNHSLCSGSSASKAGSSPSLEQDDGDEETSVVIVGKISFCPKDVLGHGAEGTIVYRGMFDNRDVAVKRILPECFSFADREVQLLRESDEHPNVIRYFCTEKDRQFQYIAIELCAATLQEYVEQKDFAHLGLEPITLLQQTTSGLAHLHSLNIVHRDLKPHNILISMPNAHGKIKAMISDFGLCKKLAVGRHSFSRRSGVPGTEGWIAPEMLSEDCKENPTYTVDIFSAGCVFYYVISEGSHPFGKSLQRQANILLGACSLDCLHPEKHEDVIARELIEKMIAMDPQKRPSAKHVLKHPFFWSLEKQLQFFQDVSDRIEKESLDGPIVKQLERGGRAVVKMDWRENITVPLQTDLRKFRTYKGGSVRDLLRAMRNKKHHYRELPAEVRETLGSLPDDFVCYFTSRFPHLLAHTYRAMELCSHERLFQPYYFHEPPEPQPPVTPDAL

Septin-9 = target: T4, Septin-9 (Homo sapiens, UniProt Q9UHD8)
T4 sequence (Q9UHD8 whole entry): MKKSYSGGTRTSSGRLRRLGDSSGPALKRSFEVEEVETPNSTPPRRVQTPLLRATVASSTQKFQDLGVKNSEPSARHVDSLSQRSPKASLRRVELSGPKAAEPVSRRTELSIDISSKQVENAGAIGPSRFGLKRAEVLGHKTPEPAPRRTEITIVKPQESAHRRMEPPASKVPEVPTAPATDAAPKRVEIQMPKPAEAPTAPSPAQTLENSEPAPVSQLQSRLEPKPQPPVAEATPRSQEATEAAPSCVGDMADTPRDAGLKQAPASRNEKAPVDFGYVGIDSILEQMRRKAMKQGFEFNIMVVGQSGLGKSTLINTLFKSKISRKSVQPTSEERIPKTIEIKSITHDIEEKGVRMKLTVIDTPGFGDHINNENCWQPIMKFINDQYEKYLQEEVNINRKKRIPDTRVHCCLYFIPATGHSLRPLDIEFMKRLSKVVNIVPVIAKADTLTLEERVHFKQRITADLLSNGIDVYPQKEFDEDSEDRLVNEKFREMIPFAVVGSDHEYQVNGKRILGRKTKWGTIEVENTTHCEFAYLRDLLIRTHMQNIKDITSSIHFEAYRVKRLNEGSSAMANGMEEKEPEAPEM

[9] = target: T5, Serine/threonine-protein kinase STK11 (Homo sapiens, UniProt Q15831)
T5 sequence (Q15831 whole entry): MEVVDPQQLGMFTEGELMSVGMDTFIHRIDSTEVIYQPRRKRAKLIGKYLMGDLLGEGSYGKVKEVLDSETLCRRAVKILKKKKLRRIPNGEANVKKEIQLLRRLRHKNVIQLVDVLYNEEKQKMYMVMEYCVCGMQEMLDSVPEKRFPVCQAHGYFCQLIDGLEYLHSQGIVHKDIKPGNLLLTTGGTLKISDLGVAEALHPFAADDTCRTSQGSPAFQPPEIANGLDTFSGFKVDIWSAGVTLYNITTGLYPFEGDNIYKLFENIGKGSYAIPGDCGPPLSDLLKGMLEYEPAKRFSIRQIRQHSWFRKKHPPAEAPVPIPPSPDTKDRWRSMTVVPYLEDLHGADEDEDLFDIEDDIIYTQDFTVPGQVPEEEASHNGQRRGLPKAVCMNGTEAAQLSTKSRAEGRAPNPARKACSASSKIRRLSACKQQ
Further: in the data inactive means no Kd found up to 30 µM.

Kd [1]	Kd [2]	Kd [3]	Kd [4]	Kd [5]	Kd [6]	Kd [7]	Kd (ADP/ATP translocase 2)	Kd [8]	Kd (Septin-9)	Kd [9]	Structure (SMILES)
> 30 µM (inactive)	> 30 µM (inactive)	> 30 µM (inactive)	> 30 µM (inactive)	> 30 µM (inactive)	> 30 µM (inactive)	> 30 µM (inactive)	> 30 µM (inactive)	> 30 µM (inactive)	–	–	C[C@@H](Oc1cc(C(=O)Nc2ccc(C(=O)N3CCN(C)CC3)cc2)nnc1N)c1c(Cl)ccc(F)c1Cl
> 30 µM (inactive)	> 30 µM (inactive)	58.2 µM (active)	> 30 µM (inactive)	> 30 µM (inactive)	> 30 µM (inactive)	> 30 µM (inactive)	> 30 µM (inactive)	> 30 µM (inactive)	> 30 µM (inactive)	> 30 µM (inactive)	C[C@H]1CNCCCN1S(=O)(=O)c1cccc2cncc(F)c12
> 30 µM (inactive)	0.449 µM (active)	> 30 µM (inactive)	–	> 30 µM (inactive)	> 30 µM (inactive)	> 30 µM (inactive)	> 30 µM (inactive)	> 30 µM (inactive)	> 30 µM (inactive)	> 30 µM (inactive)	Cc1nc2cc(-c3nn(C(C)C)c4ncnc(N)c34)ccc2o1
> 30 µM (inactive)	> 30 µM (inactive)	–	0.007 µM (active)	0.213 µM (active)	> 30 µM (inactive)	> 30 µM (inactive)	> 30 µM (inactive)	> 30 µM (inactive)	> 30 µM (inactive)	> 30 µM (inactive)	O=C(Nc1c[nH]nc1-c1nc2cc(CN3CCOCC3)ccc2[nH]1)NC1CC1 [AT-9283]
> 30 µM (inactive)	> 30 µM (inactive)	> 30 µM (inactive)	> 30 µM (inactive)	> 30 µM (inactive)	> 30 µM (inactive)	> 30 µM (inactive)	> 30 µM (inactive)	> 30 µM (inactive)	> 30 µM (inactive)	> 30 µM (inactive)	C=CC(=O)Nc1cc2c(Nc3ccc(F)c(Cl)c3)ncnc2cc1C#CC(C)(C)N1CCN(C)CC1 [AV-412 FREE BASE]
> 30 µM (inactive)	> 30 µM (inactive)	> 30 µM (inactive)	> 30 µM (inactive)	> 30 µM (inactive)	> 30 µM (inactive)	> 30 µM (inactive)	> 30 µM (inactive)	> 30 µM (inactive)	> 30 µM (inactive)	> 30 µM (inactive)	CCn1c(C(=O)N(C2CC2)C2CC2)cc2c3c(ncn3C)c(Nc3cc(C)n(C)n3)nc21 [BMS-911543]
> 30 µM (inactive)	> 30 µM (inactive)	> 30 µM (inactive)	> 30 µM (inactive)	> 30 µM (inactive)	> 30 µM (inactive)	18.4 µM (active)	> 30 µM (inactive)	> 30 µM (inactive)	> 30 µM (inactive)	> 30 µM (inactive)	Cc1cc(Nc2ncc(Cl)c(Nc3ccccc3S(=O)(=O)C(C)C)n2)c(OC(C)C)cc1C1CCNCC1 [CERITINIB]
> 30 µM (inactive)	> 30 µM (inactive)	> 30 µM (inactive)	> 30 µM (inactive)	> 30 µM (inactive)	> 30 µM (inactive)	> 30 µM (inactive)	> 30 µM (inactive)	> 30 µM (inactive)	> 30 µM (inactive)	> 30 µM (inactive)	COc1c(OCCCN2CCOCC2)ccc2c1N=C(NC(=O)c1cnc(N)nc1)N1CCN=C21 [COPANLISIB]
> 30 µM (inactive)	> 30 µM (inactive)	–	> 30 µM (inactive)	> 30 µM (inactive)	> 30 µM (inactive)	> 30 µM (inactive)	> 30 µM (inactive)	> 30 µM (inactive)	> 30 µM (inactive)	> 30 µM (inactive)	CCS(=O)(=O)N1CCN(c2ccc(Nc3ncc(C(N)=O)c(NC4CC4)n3)cc2)CC1 [Cerdulatinib Hydrochloride]
> 30 µM (inactive)	> 30 µM (inactive)	–	> 30 µM (inactive)	> 30 µM (inactive)	> 30 µM (inactive)	> 30 µM (inactive)	> 30 µM (inactive)	> 30 µM (inactive)	> 30 µM (inactive)	> 30 µM (inactive)	CCn1cc(-c2ccnc3[nH]c(-c4cccc(CN(C)C)c4)cc23)c(-c2ccc(NC(=O)N(C)C)cc2)n1 [GSK-1070916]
> 30 µM (inactive)	> 30 µM (inactive)	–	6.17 µM (active)	> 30 µM (inactive)	> 30 µM (inactive)	0.19 µM (active)	> 30 µM (inactive)	> 30 µM (inactive)	> 30 µM (inactive)	> 30 µM (inactive)	CCS(=O)(=O)c1cccc(-c2cc(C(=O)NC3CCN(C)CC3)c(C)c3[nH]c4ncc(C)cc4c23)c1 [TAK-901]
> 30 µM (inactive)	> 30 µM (inactive)	–	> 30 µM (inactive)	> 30 µM (inactive)	> 30 µM (inactive)	> 30 µM (inactive)	> 30 µM (inactive)	> 30 µM (inactive)	> 30 µM (inactive)	> 30 µM (inactive)	Cn1ncc(Cl)c1-c1cc(C(=O)N[C@H](CN)Cc2ccc(F)c(F)c2)oc1Cl [UPROSERTIB]

Structure (SMILES)	Kd [1]	Kd [2]	Kd [3]	Kd [4]	Kd [5]	Kd [6]	Kd [7]	Kd (ADP/ATP translocase 2)	Kd [8]	Kd (Septin-9)	Kd [9]
CC(C)(C)c1nc(-c2cccc(NS(=O)(=O)c3c(F)cccc3F)c2F)c(-c2ccnc(N)n2)s1 [DABRAFENIB]	> 30 µM (inactive)	> 30 µM (inactive)	> 30 µM (inactive)	–	> 30 µM (inactive)	> 30 µM (inactive)	> 30 µM (inactive)	> 30 µM (inactive)	1.45 µM (active)	> 30 µM (inactive)	> 30 µM (inactive)
